Structures are written as SMILES.

One may read the Papp A→B as the apparent permeability from the apical to the basolateral side of a cell layer. The efflux ratio is a quotient of directional permeabilities that is used to spot active efflux.

This series can be described thus: Caco-2 Papp determination. The settings on record: human, Caco-2, pH 7.4.
In the case of `CN(C)CCn1cc(-c2ccc(-c3cncc(Cl)c3N3CCC4(CCNC4=O)CC3)cc2)cn1` [Compound 19], the Papp A→B at 2 h, 1 μM came out at 25.4 ×10⁻⁶ cm/s and the efflux ratio at 2 h, 1 μM turned out to be 12.4.

For the compound `CN1c2ccc(-c3cnc(N)c(Cl)c3N3CCC4(CCNC4=O)CC3)cc2CS1(=O)=O` [Compound 88], the Papp A→B at 2 h, 1 μM came out at 19.3 ×10⁻⁶ cm/s and the efflux ratio at 2 h, 1 μM is 5.8.

In the case of `CN1c2ccc(-c3cncc(Cl)c3N3CCC4(CCNC4=O)CC3)cc2CS1(=O)=O` [Compound 23, 8-(3-Chloro-5-(1-methyl-2,2-dioxido-1,3-dihydrobenzo[c]isothiazol-5-yl)pyridin-4-yl)-2,8-diazaspiro[4.5]decan-1-one], the Papp A→B at 2 h, 1 μM is 29 ×10⁻⁶ cm/s and the efflux ratio at 2 h, 1 μM is 3.3.

The compound `CC(C)n1cc(-c2ccc(-c3cnc(N)c(Cl)c3N3CCC4(CCNC4=O)CC3)cc2)cn1` [Compound 108] came in with a Papp A→B at 2 h, 1 μM of 37.4 ×10⁻⁶ cm/s.

`O=C1NCCC12CCN(c1c(Cl)cncc1-c1ccc(-c3cnn(CCN4CCCC4)c3)cc1)CC2` [Compound 20]: the Papp A→B at 2 h, 1 μM turned out to be 30.4 ×10⁻⁶ cm/s and the efflux ratio at 2 h, 1 μM was 5.3.

`CN1CNC(=O)C12CCN(c1c(Cl)cncc1-c1ccc(-c3cnn(C)c3)cc1)CC2` [Compound 104] returned a Papp A→B at 2 h, 1 μM of 30.6 ×10⁻⁶ cm/s.

Compound `Cn1nc(N)c2ccc(-c3cncc(Cl)c3N3CCC4(CCNC4=O)CC3)cc21` [Compound 101, 8-(3-(3-Amino-1-methyl-1H-indazol-6-yl)-5-chloropyridin-4-yl)-2,8-diazaspiro[4.5]decan-1-one 2,2,2-Trifluoroacetate] returned an apparent permeability from apical to basolateral (Papp A→B) at 2 h, 1 μM of 39 ×10⁻⁶ cm/s.

On to `COCCN1CCCC12CCN(c1c(Cl)cncc1-c1ccc3c(c1)CS(=O)(=O)N3C)CC2` [Compound 54, 5-(5-Chloro-4-(1-(2-methoxyethyl)-1,8-diazaspiro[4.5]decan-8-yl)pyridin-3-yl)-1-methyl-1,3-dihydrobenzo[c]isothiazole 2,2-Dioxide], for which the Papp A→B at 2 h, 1 μM is 34.3 ×10⁻⁶ cm/s and the efflux ratio at 2 h, 1 μM stood at 1.7.

Consider `Cn1cc(-c2ccc(-c3cncc(Cl)c3N3CCC4(CC3)CNC(=O)O4)cc2)cn1` [Compound 41], for which the Papp A→B at 2 h, 1 μM stood at 30.6 ×10⁻⁶ cm/s and the efflux ratio at 2 h, 1 μM was 2.4.

In turn, `Cn1ncc2cc(-c3cnc(N)c(Cl)c3N3CCC4(CC3)CNC(=O)O4)ccc21` [Compound 110] yielded a Papp A→B at 2 h, 1 μM of 33.4 ×10⁻⁶ cm/s.

With `CN(C)CCC1(C#N)CCN(c2c(Cl)cncc2-c2ccc3c(c2)CS(=O)(=O)N3C)CC1` [Compound 51], the apparent permeability from apical to basolateral (Papp A→B) at 2 h, 1 μM is 35.3 ×10⁻⁶ cm/s.

For the compound `CN1c2ccc(-c3cnc(N)c(F)c3N3CCC4(CC3)CNC(=O)O4)cc2CS1(=O)=O` [Compound 93], the Papp A→B at 2 h, 1 μM was determined as 4 ×10⁻⁶ cm/s and the efflux ratio at 2 h, 1 μM is 81.

With `CN1c2cc(-c3cncc(Cl)c3N3CCC4(CCNC4=O)CC3)ccc2CS1(=O)=O` [Compound 24], the Papp A→B at 2 h, 1 μM turned out to be 33.8 ×10⁻⁶ cm/s and the efflux ratio at 2 h, 1 μM turned out to be 11.

Regarding `CN1c2ccc(-c3cncc(Cl)c3N3CCC4(CC3)NC(=O)NC4=O)cc2CS1(=O)=O` [Compound 46], the Papp A→B at 2 h, 1 μM is 3.3 ×10⁻⁶ cm/s and the efflux ratio at 2 h, 1 μM is 126.

Take `CN(C)c1nn(C)c2cc(-c3cncc(Cl)c3N3CCC4(CCNC4=O)CC3)ccc12` [Compound 102, 8-(3-Chloro-5-(3-(dimethylamino)-1-methyl-1H-indazol-6-yl)pyridin-4-yl)-2,8-diazaspiro[4.5]decan-1-one]: the Papp A→B at 2 h, 1 μM was 45.9 ×10⁻⁶ cm/s.

`Cn1cc(-c2ccc(-c3cnc(N)c(C(F)(F)F)c3N3CCC4(CCNC4=O)CC3)cc2)cn1` [Compound 94] gave a Papp A→B at 2 h, 1 μM of 20.7 ×10⁻⁶ cm/s.

Regarding `CNc1n[nH]c2cc(-c3cncc(Cl)c3N3CCC4(CCNC4=O)CC3)ccc12` [Compound 100, 8-(3-Chloro-5-(3-(methylamino)-1H-indazol-6-yl)pyridin-4-yl)-2,8-diazaspiro[4.5]decan-1-one], the Papp A→B at 2 h, 1 μM worked out at 28.8 ×10⁻⁶ cm/s.
